# Reference: publication PMC10210221, “Interaction of Pexiganan (MSI-78)-Derived Analogues Reduces Inflammation and TLR4-Mediated Cytokine Secretion: A Comparative Study” (ACS Omega, 2023)
# Where a SMILES comes first, the peptide text is derived from it. Where no end group is shown, it is not given here. [ ]: non-standard residue; d: D form.
# Key:
# S. Typhi ATCC 14028s = assay type: cell-based, Salmonella Typhi; conditions: ATCC 14028, 18 h
# Protocol: (§1) The peptide’s minimal inhibitory concentration (MIC) was examined as previously described.[44] In brief, sterile 96-well U-bottom polystyrene plates were used to evaluate peptide activity. Bacterial cells including S. Typhi ATCC 14028s, E. coli ATCC 35218, S. aureus ATCC P8538, and Lactobacilli ATCC 25258 were cultured in Mueller Hinton broth (MHB) at 37 °C overnight. The cells were then washed, centrifuged, and re-suspended in MHB medium. Afterward, 50 μL aliquots of suspended bacteria (1 × 10^6 colony forming units, CFU mL^–1) were added to 50 μL BM2 medium, which contained peptides in serial twofold dilutions. The plates were then incubated at 37 °C for 18 h. The inhibition of growth was determined by measuring the absorbance at 600 nm using a microplate autoreader. The MIC was defined as the concentration at which 90% growth inhibition was observed after 18 h of incubation.
# E. coli ATCC 35218 = assay type: cell-based, Escherichia coli; conditions: ATCC 35218, 18 h
# Protocol: as §1
# S. aureus ATCC P8538 = assay type: cell-based, Staphylococcus aureus; conditions: ATCC P8538, 18 h
# Protocol: as §1
# Lactobacilli ATCC 25258 = assay type: cell-based; conditions: ATCC 25258, 18 h
# Protocol: as §1
# [1] = XTT cytotoxicity / LD50 calculation; assay type: cell-based, murine; conditions: mouse, RAW 264.7 cells (macrophages); peptides 2 h, then XTT 2 h; concentration at which 50% of cells were dead, from linear graph
# Protocol: (§2) LD50 is the calculated amount of chemical that causes the death of 50% of the population tested, in this case, RAW 264.7. Each well was seeded with 1 × 10^5 cells 1 day before the experiment. Peptides were added in several doses and incubated with the cells for 2 h, followed by 2 h of XTT. We performed a linear graph and calculated the concentration in which 50% were dead.
# (§3) DMEM supplemented with low endotoxin FBS (10%), L-glutamine (1%), sodium pyruvate (1%), pen–strep (1%), and unessential amino acids (1%) was used to grow RAW 264.7 cells at 37 °C in a humidified atmosphere containing 5% CO2 and 95% air. A 96-well Falcon plate was utilized for the assay, with each well containing 1 × 10^5 cells in a 200 μL medium, cultured overnight and washed with phosphate-buffered saline (PBS) before the experiment. Peptides were added to the wells at various concentrations for 2 h, followed by XTT with fresh medium for another 2 h. The optical density was measured at 450 nm using an enzyme-linked immunosorbent assay plate reader, and cell viability was determined relative to the control.
# RAW 264.7 cells = experiment: XTT cytotoxicity / LD50 calculation; assay type: cell-based, murine; conditions: XTT, RAW 264.7 macrophages
# Protocol: as §2, §3
# pig erythrocytes = assay type: cell-based; conditions: pH 7.3
# Protocol: To examine the hemolytic properties of the peptides, a concentration of 100 μM was used. A 4% suspension of pig erythrocytes, freshly collected and washed three times in phosphate-buffered saline (PBS, pH 7.3), was used for this purpose. After incubation at 37 °C for 1 h, the suspension was centrifuged at 800g for 10 min, and the absorbance at 540 nm was measured. Complete hemolysis was determined by adding 1% Triton X-100, while adding only PBS was used to determine 0% hemolysis.The hemolysis calculation was as follows: % hemolysis = (ODPeptide – ODBuffer)/(ODTriton1% – ODBuffer) × 100.
Molecule,MIC S. Typhi ATCC 14028s (S. Typhi ATCC 14028s),MIC E. coli ATCC 35218 (E. coli ATCC 35218),MIC S. aureus ATCC P8538 (S. aureus ATCC P8538),MIC Lactobacilli ATCC 25258 (Lactobacilli ATCC 25258),CC50 at 2 h [1],Concentration toxic to RAW 264.7 cells (RAW 264.7 cells),% hemolysis (100 μM) (pig erythrocytes)
"GIGKFLKKAKKFGKAFVKILKK-NH2 [MSI-78, Pexiganan]",12.5 µM,3.12 µM,6.25 µM,1.56 µM,43.1 µM,40 µM,15.2 ± 1.1%
KKKKKGIGGLAGGAFVILKKKK-NH2 [MSI-Seg-F2G],>50 µM,>50 µM,25 µM,>50 µM,> 100 µM,–,1.2 ± 30.2%
KKKKKGIGFLAFGAFVILKKKK-NH2 [MSI-Seg],25 µM,12.5 µM,12.5 µM,>50 µM,> 100 µM,–,16.6 ± 4.2%
KKKKKKKGIGFLAFGAFVKILK-NH2 [MSI-N7K],25 µM,25 µM,25 µM,25 µM,60.9 µM,60 µM,10 ± 5.6%
CC[C@H](C)[C@H](NC(=O)CNC(=O)[C@H](CCCCN)NC(=O)[C@H](CCCCN)NC(=O)[C@H](CCCCN)NC(=O)[C@H](CCCCN)NC(=O)[C@@H](N)CCCCN)C(=O)NCC(=O)N[C@H](Cc1ccccc1)C(=O)N[C@@H](CC(C)C)C(=O)N[C@@H](C)C(=O)N[C@H](Cc1ccccc1)C(=O)NCC(=O)N[C@@H](C)C(=O)N[C@@H](Cc1ccccc1)C(=O)N[C@H](C(=O)N[C@H](C(=O)N[C@@H](CC(C)C)C(=O)N[C@@H](CCCCN)C(=O)N[C@@H](CCCCN)C(=O)N[C@@H](CCCCN)C(=O)N[C@@H](CCCCN)C(N)=O)[C@@H](C)CC)C(C)C [MSI-Seg-F2F] (H-KKKKKGIG[dF]LA[dF]GAFVILKKKK-NH2),25 µM,12.5 µM,12.5 µM,12.5 µM,> 100 µM,–,8.1 ± 3.2%
KKKKKFIGLFAGGIVLAFKKKK-NH2 [MSI-Seg-Scr],25 µM,12.5 µM,12.5 µM,12.5 µM,> 100 µM,–,3.9 ± 1.4%
